Literature values, collected in PMC12260505, “First-in-Human Phase I/IIa Study of the First-in-Class CDK2/4/6 Inhibitor PF-06873600 Alone or with Endocrine Therapy in Patients with Breast Cancer” (Clinical Cancer Research, 2025).

Biological target: CDK1
Set-up: method as in PMID 34110834
Conditions: cited from earlier work

C[C@@]1(O)CCC[C@H]1n1c(=O)c(C(F)F)cc2cnc(NC3CCN(S(C)(=O)=O)CC3)nc21 [PF-06873600]
Ki: 4.5 nM
